The values that follow come from PMC4810412, “Identification of a Fragment-Based Scaffold that Inhibits the Glycosyltransferase WaaG from Escherichia coli” (Antibiotics, 2016).

Usually IC50 stands for the point on the concentration scale where inhibition reaches its midpoint.

The target of the experiment is WaaG (α-1,3-glucosyltransferase I) (Escherichia coli, UniProt P25740). As to the kind of experiment: […]-glucose transfer from UDP-Glc to truncated LPS, SDS-PAGE autoradiography, dose-response. Format: biochemical.
WaaG (α-1,3-glucosyltransferase I), sequence (P25740 whole entry, the tested form may be a part): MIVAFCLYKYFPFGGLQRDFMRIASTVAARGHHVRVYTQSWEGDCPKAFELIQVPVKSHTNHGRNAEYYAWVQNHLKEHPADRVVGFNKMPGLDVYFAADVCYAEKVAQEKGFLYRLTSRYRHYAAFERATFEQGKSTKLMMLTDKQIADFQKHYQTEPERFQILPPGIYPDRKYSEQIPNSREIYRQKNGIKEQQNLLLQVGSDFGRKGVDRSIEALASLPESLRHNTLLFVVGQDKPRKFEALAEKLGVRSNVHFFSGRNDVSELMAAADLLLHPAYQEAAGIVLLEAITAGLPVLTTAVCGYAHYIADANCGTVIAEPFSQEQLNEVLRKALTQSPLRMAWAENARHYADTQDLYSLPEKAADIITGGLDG

Compound `Nc1nc(-c2ccc(O)cc2)cs1` [L1, 4-(2-amino-1,3-thiazol-4-yl)phenol] registered an IC50 of 1000 µM. This lies in the millimolar range.
